Row | Structure (SMILES) | melting point
1 | O=S(=O)(Cl)/C=C/c1ccccc1 | 80 to 88 °C
2 | Cc1c(N)cccc1C(=O)N1CCCC1 | 162 to 164 °C
3 | Cc1cc(Br)cc(C)c1S(=O)(=O)Cl | 49 to 51 °C
4 | N#Cc1ccc(-c2ccncc2)[nH]c1=O | 339 to 341 °C
5 | CCc1cccc2c(C=O)c[nH]c12 | 99 to 101 °C
6 | O=[N+]([O-])c1c(Cl)ccc2ncccc12 | 119 to 121 °C
7 | CN1CCN(S(=O)(=O)c2ccc(Cl)c([N+](=O)[O-])c2)CC1 | 276 to 278 °C
8 | Oc1ccc2ccccc2c1CN1CCOCC1 | 52 to 54 °C
9 | C=CCNS(=O)(=O)Cc1ccc(N)cc1 | 124 to 126 °C
10 | O=C(O)C(Oc1ccc(F)cc1Cl)c1ccccc1 (configuration not stated) | 134 to 136 °C
11 | Nc1nc2ccccc2n1-c1ccc(F)cc1 | 164 to 166 °C
12 | CCOc1ccccc1-c1nn(C(C)(C)C)cc1C(=O)O | 207 to 209 °C
13 | CN1CCCCC/C1=N/S(=O)(=O)c1ccc(N)cc1 | 223 to 225 °C
14 | Cc1nnc(CN)s1 | 76 to 78 °C
15 | Cn1cc(C=O)c(-c2ccc3c(c2)OCCCO3)n1 | 99 to 101 °C
16 | ON=C1CCN(Cc2ccccc2)CC1 | 126 to 128 °C
17 | Fc1ncccc1OCc1ccccc1 | 34 to 36 °C
18 | FC(F)(F)c1ccc2sc(C3CCNCC3)nc2c1 | 71 to 73 °C
19 | Nc1ccn(Cc2cn3ccccc3n2)n1 | 144 to 146 °C
20 | O=S1(=O)CCC2(CC1)CO2 | 168 to 170 °C

Row | Structure (SMILES) | melting point
21 | Nc1cccc(S(=O)(=O)N2CCCC2)c1 | 156 to 158 °C
22 | O=S(=O)(NC1CCCC1)c1ccc(Cl)nc1 | 97 to 99 °C
23 | O=C(O)c1ccn(-c2cccc(Cl)c2)n1 | 143 to 145 °C
24 | NC1(CO)CCc2ccccc21 (configuration not stated) | 100 to 102 °C
25 | N#Cc1ccc(C2OCCO2)cc1 | 45 to 47 °C
26 | CN(C)N=Cc1cnn(C)c1 | 70 to 72 °C
27 | Nc1ncn(C2CCCCC2)n1 | 129 to 131 °C
28 | NS(=O)(=O)c1ccc(Cl)nc1 | 154 to 156 °C
29 | O=c1[nH]nc(-c2cccs2)o1 | 116 to 118 °C
30 | O=C(c1ccc(S(=O)(=O)Cl)cc1)N1CCCCC1 | 97 to 99 °C
31 | COc1ccccc1-c1nnc(S)n1N | 210 to 220 °C
32 | O=Cc1cccnc1Cl | 50 to 54 °C
33 | N#Cc1cc(CO)ccn1 | 109 to 111 °C
34 | Nc1nncc(-c2ccc(F)cc2)n1 | 248 to 250 °C
35 | Cc1c([N+](=O)[O-])cccc1S(=O)(=O)Cl | 47 to 49 °C
36 | CNS(=O)(=O)c1c(C)noc1C | 70 to 72 °C
37 | Cc1ccc(C#N)cc1S(=O)(=O)Cl | 82 to 84 °C
38 | O=Cc1ccc(-c2ccc(F)cc2)s1 | 111 to 113 °C
39 | COc1ccc(-c2nnc(S)[nH]2)c(OC)c1 | 250 to 252 °C
40 | Nc1ccc(N2CCOCC2)c(F)c1 | 121 to 123 °C

Continued, values first:

Row | melting point | Structure (SMILES)
41 | 108 to 110 °C | O=C(CCl)Nc1ccc2c(c1)OCCCO2
42 | 127 to 129 °C | O=C(O)C1CCN(C(=O)CCOc2ccccc2)CC1
43 | 191 to 193 °C | Cc1ccc2[nH]c(C(=O)O)c(Cl)c2c1
44 | 79 to 81 °C | CSCCC(NC(=O)c1ccc(Cl)cc1Cl)C(=O)O (configuration not stated)
45 | 173 to 175 °C | Cc1nn(C(F)F)c(C)c1CC(=O)O
46 | 169 to 171 °C | C#CCNC(=O)Nc1ccc(C(C)=O)cc1
47 | 61 to 65 °C | O=C(O)CCC(=O)N1CCOCC1
48 | 126 to 128 °C | O=C(O)Cc1cccc(OCc2ccc(Cl)cc2)c1
49 | 122 to 124 °C | N#CCc1ccc(NC(=O)CCl)cc1
50 | 143 to 145 °C | O=C(O)c1sccc1S(=O)(=O)N1CCC(CO)CC1
51 | 36 to 37 °C | O=C(CCc1ccccc1)c1ccccc1O
52 | 165 to 167 °C | Cc1c(C(=O)O)nnn1-c1ccccc1Cl
53 | 203 to 205 °C | O=C(O)CN1C(=O)c2ccccc2C(F)(F)C1=O
54 | 91 to 93 °C | CCOC(=O)c1ccc2c(c1)nc(CCl)n2CC
55 | 211 to 213 °C | COC(=O)C1=NN(c2cccc(C(=O)O)c2)C(=O)C1CCO (configuration not stated)
56 | 175 to 177 °C | CN(CC(=O)O)C(=O)c1cc(Cl)nnc1Cl

Row | melting point | Structure (SMILES)
57 | 100 to 102 °C | CCc1ccc(C(=O)O)cc1CC
58 | 117 to 119 °C | O=C(O)C1(c2ccc(Br)cc2)CCC1
59 | 243 to 245 °C | CCn1ncc2c(C(=O)O)cc(-c3cccs3)nc21
60 | 166 to 168 °C | O=C(O)c1c(O)cccc1Cl
61 | 177 to 179 °C | CCC(C)C1NC(C(=O)O)CS1 (configuration not stated)
62 | 174 to 176 °C | O=C(O)CCC1Cc2ccccc2NC1=O (configuration not stated)
63 | 153 to 155 °C | CC(Cl)C(=O)Nc1c(Cl)cc(Cl)cc1Cl (configuration not stated)
64 | 129 to 131 °C | O=C(O)CN(C(=O)c1ccc(Br)o1)c1ccccc1
65 | 180 to 182 °C | CC(CC(=O)O)NCCO (configuration not stated)
66 | 59 to 61 °C | Nc1ccc2c(c1)N(CCO)CC2
67 | 131 to 133 °C | CC(C)(C)OC(=O)NCc1ccc(C(=O)O)o1
68 | 114 to 116 °C | CN(C)C(=O)CNc1ccccc1
69 | 103 to 106 °C | C=CC(=O)Nc1ccccc1
70 | 70 to 72 °C | CC(C)Oc1ccc(Cl)c(C(=O)O)n1
71 | 61 to 63 °C | O=C(NCCO)c1ccccc1C(F)(F)F
72 | 243 to 247 °C | Cn1c(=O)c2c(n(Cc3ccccc3)c1=O)NC(=O)C2CC(=O)O (configuration not stated)
